Assay results from patent US7531482B2, “Thieno-pyrimidine compounds having fungicidal activity” (Dow AgroSciences LLC, priority 2005, dated 2009).

How the values were obtained:
Type in all cases: in vivo
Phytophthora infestans = assay: whole plant or invertebrate; details: for pest or weed control at 200 ppm: read-out: PHYTIN disease control, 200 ppm applied to foliage of tomato
Colletotricum lagenarium = assay: Cucumber Anthracnose (COLLLA) whole-plant disease control test; details: for pest or weed control at 200 ppm: read-out: COLLLA disease control
[1] = tested on: Puccinia recondita tritici; assay: Leaf Rust of Wheat (PUCCRT) whole-plant disease control test; details: for pest or weed control at 200 ppm: read-out: PUCCRT disease control
Erysiphe cichoracaerum = assay: Cucumber Powdery Mildew (ERYSCI) whole-plant disease control test; details: for pest or weed control at 200 ppm: read-out: ERYSCI disease control
[2] = tested on: Magnaporthe grisea=Pyricularia oryzae; assay: whole plant or invertebrate; details: for pest or weed control at 200 ppm: read-out: PYRIOR disease control, 200 ppm applied to foliage of rice
Leptosphaeria nodorum = assay: Glume Blotch of Wheat (LEPTNO) whole-plant disease control test; details: for pest or weed control at 200 ppm: read-out: LEPTNO disease control
[3] = tested on: Mycosphaerella graminicola=Septoria tritici; assay: Speckled Leaf Blotch of Wheat (SEPTTR) whole-plant disease control test; details: 75 ppm applied to foliage of wheat; for pest or weed control at 75 ppm: Mycosphaerella, foliar, read-out: SEPTTR disease control
[4] = Phytophthora infestans, in Solanum lycopersicum, foliar, inoculated one day after treatment
[5] = Cucumis sativus, foliar, 200 ppm applied to foliage of cucumber, inoculated one day after treatment
[6] = Puccinia recondita, foliar, 200 ppm applied to foliage of wheat, inoculated one day after treatment
[7] = Erysiphe, foliar, 200 ppm applied to foliage of cucumber, inoculated one day after treatment
[8] = Pyricularia oryzae, foliar, inoculated one day after treatment
[9] = Parastagonospora nodorum, foliar, 200 ppm applied to foliage of wheat, inoculated one day after treatment
[10] = 200 ppm applied to foliage of cucumber, inoculated one day after treatment
[11] = 200 ppm applied to foliage of wheat, inoculated one day after treatment

Compound | pest or weed control at 200 ppm (Phytophthora infestans; [4]) [%] | pest or weed control at 200 ppm (Colletotricum lagenarium; [5]) [%] | pest or weed control at 200 ppm [1, 6] [%] | pest or weed control at 200 ppm (Erysiphe cichoracaerum; [7]) [%] | pest or weed control at 200 ppm [2, 8] [%] | pest or weed control at 200 ppm (Leptosphaeria nodorum; [9]) [%] | pest or weed control at 75 ppm [3] [%] | pest or weed control at 100 ppm (Phytophthora infestans; Phytophthora infestans, in Solanum lycopersicum, foliar, read-out: PHYTIN disease control, 100 ppm (footnote a), tomato foliage) [%] | pest or weed control at 100 ppm (Colletotricum lagenarium; Cucumis sativus, foliar, 100 ppm (footnote a), cucumber foliage) [%] | pest or weed control at 8.3 ppm ([1]; Puccinia recondita, foliar, 8.3 ppm (footnote c), wheat foliage) [%] | pest or weed control at 100 ppm (Erysiphe cichoracaerum; Erysiphe, foliar, 100 ppm (footnote a), cucumber foliage) [%] | pest or weed control at 8.3 ppm ([2]; Pyricularia oryzae, foliar, read-out: PYRIOR disease control, 8.3 ppm (footnote c), rice foliage) [%] | pest or weed control at 75 ppm (Leptosphaeria nodorum; Parastagonospora nodorum, foliar, 75 ppm (footnote b), wheat foliage) [%] | PHYTIN disease control (Phytophthora infestans; 200 ppm applied to foliage of tomato, inoculated one day after treatment) | COLLLA disease control (Colletotricum lagenarium; [10]) | PUCCRT disease control [1, 11] | ERYSCI disease control (Erysiphe cichoracaerum; [10]) | PYRIOR disease control ([2]; 200 ppm applied to foliage of rice, inoculated one day after treatment) | LEPTNO disease control (Leptosphaeria nodorum; [11]) | SEPTTR disease control [3]
Cc1cc(Br)cnc1Oc1ccc(CCNc2ncnc3scc(Cl)c23)cc1 [Compound 42] | 0 to 49 | 0 to 49 | 0 to 49 | 0 to 49 | 80 to 100 | 50 to 79 | 80 to 100 | – | – | – | – | – | – | – | – | – | – | – | – | –
Clc1csc2ncnc(NCCc3ccc(Oc4cc(I)ccn4)cc3)c12 [Compound 43] | 0 to 49 | 50 to 79 | 80 to 100 | 80 to 100 | 80 to 100 | 80 to 100 | 80 to 100 | – | – | – | – | – | – | – | – | – | – | – | – | –
FC(F)(F)COc1ccnc(Oc2ccc(CCNc3ncnc4scc(Cl)c34)cc2)n1 [Compound 44] | 50 to 79 | 0 to 49 | 80 to 100 | 50 to 79 | 80 to 100 | 80 to 100 | 80 to 100 | – | – | – | – | – | – | – | – | – | – | – | – | –
Clc1nccc(Oc2ccc(CCNc3ncnc4scc(Cl)c34)cc2)n1 [Compound 45] | 0 to 49 | 0 to 49 | 80 to 100 | 0 to 49 | 50 to 79 | 0 to 49 | 50 to 79 | – | – | – | – | – | – | – | – | – | – | – | – | –
CC(=O)c1cnc(Oc2ccc(CCNc3ncnc4scc(Cl)c34)cc2)s1 [Compound 46] | 0 to 49 | 0 to 49 | 80 to 100 | 0 to 49 | 50 to 79 | 0 to 49 | 50 to 79 | – | – | – | – | – | – | – | – | – | – | – | – | –
N#Cc1ccnc(Oc2ccc(CCNc3ncnc4scc(Br)c34)cc2)c1 [Compound 47] | – | – | – | – | – | – | 50 to 79 | 0 to 49 | 0 to 49 | 80 to 100 | 80 to 100 | 80 to 100 | 80 to 100 | – | – | – | – | – | – | –
CO/N=C(\C)c1cnc(Oc2ccc(CCNc3ncnc4scc(Cl)c34)cc2)s1 [Compound 48] | 80 to 100 | 50 to 79 | 80 to 100 | 80 to 100 | 80 to 100 | 0 to 49 | 50 to 79 | – | – | – | – | – | – | – | – | – | – | – | – | –
c1csc(Oc2ccc(CCNc3ncnc4sccc34)cc2)n1 [Compound 49] | 80 to 100 | 50 to 79 | 80 to 100 | 80 to 100 | 80 to 100 | 50 to 79 | 50 to 79 | – | – | – | – | – | – | – | – | – | – | – | – | –
Cc1cc(Oc2ccc(CCNc3ncnc4scc(Cl)c34)cc2)cnc1S(C)(=O)=O [Compound 50] | 80 to 100 | 50 to 79 | 80 to 100 | 0 to 49 | 80 to 100 | 50 to 79 | 50 to 79 | – | – | – | – | – | – | – | – | – | – | – | – | –
Clc1cc(Br)cnc1Oc1ccc(CCNc2ncnc3scc(Cl)c23)cc1 [Compound 51] | 0 to 49 | 0 to 49 | 80 to 100 | 0 to 49 | 80 to 100 | 0 to 49 | 50 to 79 | – | – | – | – | – | – | – | – | – | – | – | – | –
CCc1ncnc(Oc2ccc(CCNc3ncnc4scc(Cl)c34)cc2)c1Cl [Compound 52] | 0 to 49 | 50 to 79 | 80 to 100 | 50 to 79 | 80 to 100 | 50 to 79 | 80 to 100 | – | – | – | – | – | – | – | – | – | – | – | – | –
N#Cc1ccnc(Oc2ccc(CCNc3ncnc4sccc34)cc2)c1 [Compound 53] | 80 to 100 | 80 to 100 | 80 to 100 | 50 to 79 | 80 to 100 | 50 to 79 | 50 to 79 | – | – | – | – | – | – | – | – | – | – | – | – | –
Clc1csc2ncnc(NCCc3ccc(Oc4ncnc5sccc45)cc3)c12 [Compound 54] | 80 to 100 | 80 to 100 | 80 to 100 | 50 to 79 | 80 to 100 | 50 to 79 | 0 to 49 | – | – | – | – | – | – | – | – | – | – | – | – | –
N#Cc1ccnc(Oc2ccc(CCNc3ncnc4scc(F)c34)cc2)c1 [Compound 55] | 50 to 79 | 80 to 100 | 80 to 100 | 50 to 79 | 0 to 49 | 0 to 49 | 50 to 79 | – | – | – | – | – | – | – | – | – | – | – | – | –
Brc1csc2ncnc(NCCc3ccc(Oc4ncnc5scc(Br)c45)cc3)c12 [Compound 57] | 0 to 49 | 50 to 79 | 80 to 100 | 0 to 49 | 80 to 100 | 0 to 49 | 0 to 49 | – | – | – | – | – | – | – | – | – | – | – | – | –
N#Cc1nc(Cl)ccc1Oc1ccc(CCNc2ncnc3scc(Cl)c23)cc1 [Compound 58] | 0 to 49 | 0 to 49 | 80 to 100 | 0 to 49 | 80 to 100 | 50 to 79 | 50 to 79 | – | – | – | – | – | – | – | – | – | – | – | – | –
N#Cc1nc(Oc2ccc(CCNc3ncnc4scc(Cl)c34)cc2)ccc1Cl [Compound 59] | 0 to 49 | 80 to 100 | 80 to 100 | 50 to 79 | 80 to 100 | 0 to 49 | 0 to 49 | – | – | – | – | – | – | – | – | – | – | – | – | –
Fc1cnc(C(F)(F)F)c(F)c1Oc1ccc(CCNc2ncnc3scc(Cl)c23)cc1 [Compound 61] | 0 to 49 | 80 to 100 | 80 to 100 | 80 to 100 | 80 to 100 | 50 to 79 | 80 to 100 | – | – | – | – | – | – | – | – | – | – | – | – | –
FC(F)(F)c1cc(Cl)nc(Oc2ccc(CCNc3ncnc4scc(Cl)c34)cc2)c1 [Compound 62] | 0 to 49 | 80 to 100 | 80 to 100 | 50 to 79 | 80 to 100 | 0 to 49 | 50 to 79 | – | – | – | – | – | – | – | – | – | – | – | – | –
COc1cc(C(F)(F)F)cc(Oc2ccc(CCNc3ncnc4scc(Cl)c34)cc2)n1 [Compound 63] | 50 to 79 | 50 to 79 | 80 to 100 | 80 to 100 | 80 to 100 | 0 to 49 | 50 to 79 | – | – | – | – | – | – | – | – | – | – | – | – | –
FC(F)(F)c1cnc(Oc2ccc(CCNc3ncnc4scc(Cl)c34)cc2)c(Cl)c1 [Compound 64] | 0 to 49 | 50 to 79 | 80 to 100 | 80 to 100 | 80 to 100 | 0 to 49 | 80 to 100 | – | – | – | – | – | – | – | – | – | – | – | – | –
FC(F)(F)c1ccc(Oc2ccc(CCNc3ncnc4scc(Cl)c34)cc2)cn1 [Compound 65] | 80 to 100 | 80 to 100 | 80 to 100 | 50 to 79 | 80 to 100 | 50 to 79 | 80 to 100 | – | – | – | – | – | – | – | – | – | – | – | – | –
Cc1noc2ncnc(Oc3ccc(CCNc4ncnc5scc(Cl)c45)cc3)c12 [Compound 66] | 0 to 49 | 0 to 49 | 80 to 100 | 0 to 49 | 50 to 79 | 0 to 49 | 50 to 79 | – | – | – | – | – | – | – | – | – | – | – | – | –
FC(F)(F)c1ccc(Oc2cccc(CCNc3ncnc4scc(Cl)c34)c2)nc1 [Compound 67, (5-Chlorothieno[2,3-d]pyrimidin-4-yl)-{2-[3-(5-trifluoromethylpyridin-2-yloxy)phenyl]ethyl}amine] | 50 to 79 | 0 to 49 | 80 to 100 | 50 to 79 | 80 to 100 | 50 to 79 | 80 to 100 | – | – | – | – | – | – | – | – | – | – | – | – | –
Clc1csc2ncnc(NCCc3ccc(Oc4ncnc5scc(Cl)c45)cc3)c12 [Compound 68] | – | – | – | – | – | – | – | – | – | – | – | – | – | ** (** = 50–79 percent control) | * (* = 0–49 percent control) | *** (*** = 80–100 percent control) | * (* = 0–49 percent control) | *** (*** = 80–100 percent control) | * (* = 0–49 percent control) | * (* = 0–49 percent control)
